Results published in patent publication US20080207614A1, “QUINAZOLINE DERIVATIVES FOR THE TREATMENT AND PREVENTION OF DIABETES AND OBESITY” (SK CHEMICALS CO., LTD., priority 2004, published 2008).

Experiments:
C2C12 muscle cells = experiment: Analysis of glucose absorption (2-deoxyglucose) in differentiated C2C12 muscle cells; assay type: cell-based; conditions: test materials 10 μM, times relative to control group
How it was run: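 Uptake of 0.2 μCi 2-deoxyglucose over 20 min, counted radiometrically in lysed cells. Before tracer, compounds (10 μM) were applied for 30 min to C2C12 cells differentiated 6 days in 1% serum and equilibrated 3 h in 5 mM glucose KRB.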

AMPK = experiment: Measurement of AMPK activity by Western blot in C2C12 cells; assay type: cell-based; parameters: key to AMPK activity (degree of phosphorylation of serine-79 and threonine-172): fold increase in threonine-172 phosphorylation; AMPK activity (degree of phosphorylation of serine-79): unit not given here; conditions: 10 μM for 50 minutes; for AMPK activity (degree of phosphorylation of serine-79 and threonine-172): no superscript: Western blot of serine-79 and threonine-172 phosphorylation; for AMPK activity (class: degree of phosphorylation of threonine-172): strong/mild/weak; for AMPK activity (degree of phosphorylation of serine-79): footnote a: Western blot of serine-79 phosphorylation
How it was run: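 Western blot readout of AMPK Thr-172 and ACC Ser-79 phosphorylation, normalised against ERK, served as the activity measure. Cells were C2C12 after differentiation, treated 50 minutes with 10 μM test material. Grading by Thr-172 increase: ≥3-fold strong, 1-3-fold mild, <1-fold weak.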

| SMILES | Glucose absorption (C2C12 muscle cells) | AMPK activity (degree of phosphorylation of serine-79 and threonine-172) (AMPK) | AMPK activity (class: degree of phosphorylation of threonine-172) (AMPK) | AMPK activity (degree of phosphorylation of serine-79) (AMPK) |
| --- | --- | --- | --- | --- |
| COc1cc(CNc2nc(C(C)C)nc3ccccc23)cc(OC)c1 [Compound 323, (3,5-Dimethoxybenzyl)-(2-isopropylquinazolino-4-yl)-amine] | 1.1 | 1.2 |  |  |
| Brc1cccc(CNc2nc(-c3ccccc3)nc3ccccc23)c1 [Compound 153, (3-Bromobenzyl)-(2-phenylquinazolino-4-yl)-amine] | 2.4 | 1.3 | mild (“mild” means that the degree of phosphorylation of threonine-172 increased by 1 to 3 times) |  |
| Brc1ccccc1CNc1nc(-c2ccccc2)nc2ccccc12 [Compound 155, (2-Bromobenzyl)-(2-phenylquinazolino-4-yl)-amine] | 2.7 | 1.3 | mild (“mild” means that the degree of phosphorylation of threonine-172 increased by 1 to 3 times) |  |
| COc1ccccc1CNc1nc(C(C)C)nc2ccccc12 [Compound 321, (2-Isopropylquinazolino-4-yl)-(2-methoxybenzyl)-amine] | 1.2 | 0.9 |  |  |
| CCC(CC)Nc1nc(-c2ccccc2)nc2ccccc12 [Compound 121, (1-Ethylpropyl)-(2-phenylquinazolino-4-yl)-amine] | 2.4 | 2.2 | strong (“strong” means that the degree of phosphorylation of threonine-172 increased by 3 times or more) |  |
| CC(c1ccccc1)c1nc(NCc2ccc3c(c2)OCO3)c2ccccc2n1 (stereo not shown) [Compound 374, Benzo[1,3]dioxol-5-ylmethyl-[2-(1-phenylethyl)-quinazolino-4-yl]-amine] | 1.1 | 1.9 |  |  |
| COc1ccc(CNc2nc(N3CCOCC3)nc3ccccc23)cc1 [Compound 285, (4-Methoxybenzyl)-(2-morpholino-4-ylquinazolino-4-yl)-amine] | 0.8 | 1.6 |  |  |
| FCCNc1nc(-c2ccccc2)nc2ccccc12 [Compound 114, (2-Fluoro-ethyl)-(2-phenylquinazolino-4-yl)-amine] | 2.2 | 2.0 | strong (“strong” means that the degree of phosphorylation of threonine-172 increased by 3 times or more) |  |
| Cc1nc(NCc2cccc(C(F)(F)F)c2)c2ccccc2n1 [Compound 166, (2-Methylquinazolino-4-yl)-(3-trifluoromethylbenzyl)-amine] | 2.8 | 3.8 | strong (“strong” means that the degree of phosphorylation of threonine-172 increased by 3 times or more) |  |
| c1ccc2c(NCc3ccc4c(c3)OCO4)nc(N3CCCCC3)nc2c1 [Compound 308, Benzo[1,3]dioxol-5-ylmethyl-(2-piperidino-1-ylquinazolino-4-yl)-amine] | 0.8 | 2.2 |  |  |
| Cc1nc(NCc2cccc3ccccc23)c2ccccc2n1 [Compound 169, (2-Methylquinazolino-4-yl)-naphthaleno-1-ylmethylamine] | 2.5 | 6.6 | strong (“strong” means that the degree of phosphorylation of threonine-172 increased by 3 times or more) |  |
| COc1cc(CNc2nc(Cc3ccccc3)nc3ccccc23)cc(OC)c1 [Compound 330, (2-Benzylquinazolino-4-yl)-(3,5-dimethoxybenzyl)-amine] | 1.2 | 1.7 |  |  |
| ClC(Cl)(Cl)c1nc(NCCN2CCCCC2)c2ccccc2n1 [Compound 4, (2-Piperidino-1-ylethyl)-(2-trichloromethylquinazolino-4-yl)-amine] | 1.2 |  |  | 3.5^a |
| Clc1ccc(CNc2nc(-c3ccccc3)nc3ccccc23)c(Cl)c1 [Compound 108, (2,4-Dichlorobenzyl)-(2-phenylquinazolino-4-yl)-amine] | 2.2 | 2.2 | strong (“strong” means that the degree of phosphorylation of threonine-172 increased by 3 times or more) |  |
| CCSc1nc(NCCc2cccc(F)c2)c2ccccc2n1 [Compound 10, (2-Ethylsulfanylquinazolino-4-yl)-[2-(3-fluorophenyl)-ethyl]-amine] | 1.5 |  |  | 5.3^a |
| c1ccc(-c2nc(NCc3ccccn3)c3ccccc3n2)cc1 [Compound 142, (2-Phenylquinazolino-4-yl)-pyridino-2-ylmethylamine] | 1.4 | 1.4 | mild (“mild” means that the degree of phosphorylation of threonine-172 increased by 1 to 3 times) |  |
| COc1ccc(CNc2nc(C)nc3ccccc23)cc1 [Compound 165, (4-Methoxybenzyl)-(2-methylquinazolino-4-yl)-amine] | 2.5 | 5.2 | strong (“strong” means that the degree of phosphorylation of threonine-172 increased by 3 times or more) |  |
| CC(C)c1nc(NCc2ccccc2)c2ccccc2n1 [Compound 175, Benzyl-(2-isopropylquinazolino-4-yl)-amine] | 2.7 | 4.8 | strong (“strong” means that the degree of phosphorylation of threonine-172 increased by 3 times or more) |  |
| COc1ccccc1CNc1nc(N2CCCCC2)nc2ccccc12 [Compound 276, (2-Methoxybenzyl)-(2-piperidino-1-ylquinazolino-4-yl)-amine] | 0.8 | 1.9 |  |  |
| CCSc1nc(NCc2ccccc2)c2ccccc2n1 [Compound 22, Benzyl-(2-Ethylsulfanylquinazolino-4-yl)-amine] | 2.6 |  | strong (“strong” means that the degree of phosphorylation of threonine-172 increased by 3 times or more) |  |
| COc1cccc(CNc2nc(N3CCCCC3)nc3ccccc23)c1OC [Compound 288, (2,3-Dimethoxybenzyl)-(2-piperidino-1-ylquinazolino-4-yl)-amine] | 0.8 | 1.7 |  |  |
| C1=C(CCNc2nc(-c3ccccc3)nc3ccccc23)CCCC1 [Compound 131, (2-Cyclohex-1-enylethyl)-(2-phenylquinazolino-4-yl)-amine] | 2.3 | 1.8 | strong (“strong” means that the degree of phosphorylation of threonine-172 increased by 3 times or more) |  |
| COc1cccc(CNc2nc(C(C)c3ccccc3)nc3ccccc23)c1OC (stereo not shown) [Compound 375, (2,3-Dimethoxybenzyl)-[2-(1-phenylethyl)-quinazolino-4-yl]-amine] | 1.1 | 5.2 |  |  |
| COc1cc(OC)c(CNc2nc(C(OC)c3ccccc3)nc3ccccc23)c(OC)c1 (stereo not shown) [Compound 370, [2-(Methoxyphenylmethyl)-quinazolino-4-yl]-(2,4,6-trimethoxybenzyl)-amine] | 1.3 | 7.7 |  |  |
| CC(CO)Nc1nc(-c2ccccc2)nc2ccccc12 (stereo not shown) [Compound 112, 2-(2-Phenylquinazolino-4-ylamino)-propane-1-ol] | 1.9 | 1.7 | strong (“strong” means that the degree of phosphorylation of threonine-172 increased by 3 times or more) |  |
| Clc1cccc(CCNc2nc(-c3ccccc3)nc3ccccc23)c1 [Compound 126, [2-(3-Chlorophenyl)-ethyl]-(2-phenylquinazolino-4-yl)-amine] | 2.1 | 2.0 | strong (“strong” means that the degree of phosphorylation of threonine-172 increased by 3 times or more) |  |
| Clc1ccccc1CNc1nc(-c2ccccc2)nc2ccccc12 [Compound 109, (2-Chlorobenzyl)-(2-phenylquinazolino-4-yl)-amine] | 1.3 | 1.9 | strong (“strong” means that the degree of phosphorylation of threonine-172 increased by 3 times or more) |  |
| Clc1ccc(CCNc2nc(-c3ccccc3)nc3ccccc23)cc1Cl [Compound 149, [2-(3,4-Dichlorophenyl)-ethyl]-(2-phenylquinazolino-4-yl)-amine] | 2.6 | 2.5 | strong (“strong” means that the degree of phosphorylation of threonine-172 increased by 3 times or more) |  |
| C=CCNc1ncnc2cc(OCC)c(OCC)cc12 [Compound 16, Allyl-(6,7-diethoxyquinazolino-4-yl)-amine] | 1.3 |  |  | 3.1^a |
